Reference: US12503438B2, “Compounds for the treatment of kinase-dependent disorders” (Exelixis, Inc., priority 2019, dated 2025)

What was measured:
Met = Met (Homo sapiens, UniProt P08581); assay: Met autophosphorylation ELISA in PC-3 cells; type: cell-based; set-up: endogenous in cells; host or cells: PC-3 prostate cancer cells (ATCC #CRL-1435); settings: cellular activity, HGF-stimulated, phospho-Met ELISA, read-out: c-Met IC50
Experimental: PC-3 prostate cancer cells (ATCC #CRL-1435) were seeded at 4×10^4 cells/well onto 24-well plates (Greiner #662165), in DMEM (Thermo Fisher #11995-040) containing 10% FBS (Thermo Fisher #26140-079), 1% MEM NEAA (Thermo Fisher #11140-050), 1% GlutaMax (Thermo Fisher #35050-061), and 1% Penicillin Streptomycin (Thermo Fisher #15140-122). PC-3 cells were incubated at 37° C., 5% CO2 for 24 h and then starved for 3 h in serum-free medium. Test compounds were serially diluted to produce an 8-point dose curve in fresh serum-free medium to a final concentration of 0.3% DMSO (vehicle) and added to the cells and incubated for 1 h. Cells were then stimulated with 100 ng/mL recombinant human HGF (R&D Systems #294-HG-250) for 10 min, washed with cold PBS and immediately lysed with 130 μL of cold 1× lysis buffer [20 mM Tris, 137 mM sodium chloride, 2 mM EDTA, 10% glycerol, 1% NP-40 alternative, 1 mM activated sodium orthovanadate, 1 mM PefaBloc SC (Sigma-Aldrich #11429868001), protease/phosphatase inhibitor tablet (Thermo Fisher #A32959)]. Lysates were clarified by centrifugation and 100 μL/well added into the PathScan phospho-Met (panTyr) Sandwich ELISA (Cell Signaling Technology #7333). Assay was performed according to manufacturer's instructions. Positive control wells (100% activity) contained HGF-stimulated, DMSO-treated cell lysates. Negative control wells (0% activity) contained HGF-stimulated, reference inhibitor-treated cell lysates. IC50 values were calculated by nonlinear regression analysis using a 4-parameter logistic curve fit in ActivityBase XE (IDBS).

AXL = target: T1, AXL (Homo sapiens, UniProt P30530); assay: AXL autophosphorylation ELISA in A-172 cells; type: cell-based; settings: cellular activity, Gas6-stimulated, phospho-AXL ELISA
T1 construct: endogenous in cells; host or cells: A-172 glioblastoma cells (ATCC #CRL-1620)
T1 sequence (P30530 26-894): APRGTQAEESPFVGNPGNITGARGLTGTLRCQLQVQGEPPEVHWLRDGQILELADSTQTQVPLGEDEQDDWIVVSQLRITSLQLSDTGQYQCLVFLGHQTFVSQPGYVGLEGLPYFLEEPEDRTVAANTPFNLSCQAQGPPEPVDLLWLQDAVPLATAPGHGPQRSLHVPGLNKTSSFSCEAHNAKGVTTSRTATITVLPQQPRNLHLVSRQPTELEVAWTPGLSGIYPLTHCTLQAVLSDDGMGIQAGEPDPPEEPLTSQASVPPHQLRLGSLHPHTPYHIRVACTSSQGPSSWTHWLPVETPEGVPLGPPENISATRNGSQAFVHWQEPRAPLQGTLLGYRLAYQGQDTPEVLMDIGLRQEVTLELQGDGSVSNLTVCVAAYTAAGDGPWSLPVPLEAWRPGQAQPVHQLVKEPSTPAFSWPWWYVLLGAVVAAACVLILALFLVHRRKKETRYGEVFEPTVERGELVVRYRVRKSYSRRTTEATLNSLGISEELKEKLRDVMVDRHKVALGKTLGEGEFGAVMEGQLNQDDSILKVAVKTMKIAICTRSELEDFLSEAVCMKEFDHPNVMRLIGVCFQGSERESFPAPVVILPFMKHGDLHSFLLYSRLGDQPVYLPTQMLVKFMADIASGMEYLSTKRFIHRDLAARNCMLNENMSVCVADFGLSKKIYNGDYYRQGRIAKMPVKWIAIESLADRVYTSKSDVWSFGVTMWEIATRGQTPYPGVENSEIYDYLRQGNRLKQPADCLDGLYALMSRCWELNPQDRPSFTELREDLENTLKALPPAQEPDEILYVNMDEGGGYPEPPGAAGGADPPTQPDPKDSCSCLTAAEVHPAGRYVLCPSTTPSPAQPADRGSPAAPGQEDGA
Experimental: A-172 glioblastoma cells (ATCC #CRL-1620) were seeded at 2.5×10^5 cells/well onto 24-well plates (Greiner #662165), in DMEM (Thermo Fisher #11995-040) containing 10% FBS (Thermo Fisher #26140-079), 1% MEM NEAA (Thermo Fisher #11140-050), 1% GlutaMax (Thermo Fisher #35050-061) and 1% Penicillin Streptomycin (Thermo Fisher #15140-122). A-172 cells were incubated at 37° C., 5% CO2 for 24 h and then starved for 24 h in serum-free medium. Test compounds were serially diluted to produce an 8-point dose curve in fresh serum-free medium to a final concentration of 0.3% DMSO (vehicle) and added to the cells and incubated for 1 h. Cells were then stimulated with 1 μg/mL recombinant human Gas6 (R&D Systems #885-GSB-500) for 15 min, washed with cold PBS and immediately lysed with 150 μL of cold 1× lysis buffer [20 mM Tris, 137 mM sodium chloride, 2 mM EDTA, 10% glycerol, 1% NP-40 alternative, 1 mM activated sodium orthovanadate, 1 mM PefaBloc SC (Sigma-Aldrich #11429868001), protease/phosphatase inhibitor tablet (Thermo Fisher #A32959)]. Lysates were collected and 100 μL/well added into the human phospho-AXL DuoSet IC ELISA (R&D Systems #DYC2228-2). Assay was performed according to manufacturer's instructions and sample phospho-AXL concentrations were extrapolated using human phospho-AXL control (R&D Systems #841645) as a standard. Positive control wells (100% activity) contained Gas6-stimulated, DMSO-treated cell lysates. Negative control wells (0% activity) contained Gas6-stimulated, reference inhibitor-treated cell lysates. IC50 values were calculated by nonlinear regression analysis using a 4-parameter logistic curve fit in ActivityBase XE (IDBS).

Sequence of Met (P08581 25-1390): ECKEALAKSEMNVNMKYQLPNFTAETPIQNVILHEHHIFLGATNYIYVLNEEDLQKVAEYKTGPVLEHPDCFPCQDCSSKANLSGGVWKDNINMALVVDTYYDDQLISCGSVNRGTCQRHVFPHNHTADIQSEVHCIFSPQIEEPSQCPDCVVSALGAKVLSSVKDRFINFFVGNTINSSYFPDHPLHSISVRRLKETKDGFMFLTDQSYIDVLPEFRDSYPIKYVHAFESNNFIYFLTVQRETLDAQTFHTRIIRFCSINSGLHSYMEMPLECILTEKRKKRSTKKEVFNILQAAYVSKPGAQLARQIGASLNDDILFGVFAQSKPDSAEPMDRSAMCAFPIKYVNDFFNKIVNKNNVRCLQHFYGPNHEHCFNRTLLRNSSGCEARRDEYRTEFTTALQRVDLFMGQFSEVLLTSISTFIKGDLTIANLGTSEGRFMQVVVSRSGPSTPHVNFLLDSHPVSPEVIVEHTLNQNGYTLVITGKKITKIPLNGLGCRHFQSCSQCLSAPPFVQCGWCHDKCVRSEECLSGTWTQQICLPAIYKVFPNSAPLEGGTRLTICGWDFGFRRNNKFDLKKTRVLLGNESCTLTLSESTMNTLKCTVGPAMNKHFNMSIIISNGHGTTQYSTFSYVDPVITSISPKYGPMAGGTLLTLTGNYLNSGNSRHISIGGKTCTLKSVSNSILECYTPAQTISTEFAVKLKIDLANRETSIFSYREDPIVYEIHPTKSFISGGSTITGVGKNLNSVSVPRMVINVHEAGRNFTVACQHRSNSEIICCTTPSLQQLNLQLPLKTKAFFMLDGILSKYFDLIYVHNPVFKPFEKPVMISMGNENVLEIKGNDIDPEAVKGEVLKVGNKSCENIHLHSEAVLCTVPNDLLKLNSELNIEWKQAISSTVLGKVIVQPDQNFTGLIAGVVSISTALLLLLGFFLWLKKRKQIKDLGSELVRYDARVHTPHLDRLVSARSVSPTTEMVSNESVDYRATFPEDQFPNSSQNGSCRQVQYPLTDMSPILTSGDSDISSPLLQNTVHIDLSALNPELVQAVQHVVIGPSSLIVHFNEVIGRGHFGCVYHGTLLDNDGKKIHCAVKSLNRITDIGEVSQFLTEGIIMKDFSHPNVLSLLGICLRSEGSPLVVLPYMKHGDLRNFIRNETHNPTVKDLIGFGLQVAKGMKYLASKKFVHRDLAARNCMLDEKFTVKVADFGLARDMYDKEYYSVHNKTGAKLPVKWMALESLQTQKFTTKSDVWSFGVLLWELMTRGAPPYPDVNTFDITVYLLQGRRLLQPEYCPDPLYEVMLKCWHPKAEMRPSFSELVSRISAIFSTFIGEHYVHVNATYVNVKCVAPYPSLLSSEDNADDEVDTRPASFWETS

Structure (SMILES) | IC50 (Met) | IC50 (AXL)
COCCn1cc(-c2ccc3c(Oc4ccc(NC(=O)C5(C(=O)Nc6ccc(F)cc6)CC5)cc4)ccnc3c2)cn1 [Compound 10, 1-N′-(4-Fluorophenyl)-1-N-[4-[7-[1-(2-methoxyethyl)pyrazol-4-yl]quinolin-4-yl]oxyphenyl]cyclopropane-1,1-dicarboxamide] | 10 to 100 nM | ≤ 10 nM
Cn1cc(-c2ccc3c(Oc4ccc(NC(=O)C5(C(=O)Nc6ccc(F)cc6)CC5)cc4)ccnc3c2)cn1 [Compound 11, 1-N′-(4-Fluorophenyl)-1-N-[4-[7-(1-methylpyrazol-4-yl)quinolin-4-yl]oxyphenyl]cyclopropane-1,1-dicarboxamide] | ≤ 10 nM | ≤ 10 nM
O=C(Nc1ccc(F)cc1)C1(C(=O)Nc2ccc(Oc3ccnc4cc(-c5cnn(C(F)(F)F)c5)ccc34)cc2)CC1 [Compound 12, 1-N′-(4-Fluorophenyl)-1-N-[4-[7-[1-(trifluoromethyl)pyrazol-4-yl]quinolin-4-yl]oxyphenyl]cyclopropane-1,1-dicarboxamide] | 10 to 100 nM | 10 to 100 nM
Cn1ccc(-c2ccc3c(Oc4ccc(NC(=O)C5(C(=O)Nc6ccc(F)cc6)CC5)cc4)ccnc3c2)n1 [Compound 17, 1-N′-(4-Fluorophenyl)-1-N-[4-[7-(1-methylpyrazol-3-yl)quinolin-4-yl]oxyphenyl]cyclopropane-1,1-dicarboxamide] | 10 to 100 nM | 10 to 100 nM
O=C(Nc1ccc(F)cc1)C1(C(=O)Nc2ccc(Oc3ccnc4cc(-c5cnn(CCN6CCOCC6)c5)ccc34)cc2)CC1 [Compound 19, 1-N′-(4-Fluorophenyl)-1-N-[4-[7-[1-(2-morpholin-4-ylethyl)pyrazol-4-yl]quinolin-4-yl]oxyphenyl]cyclopropane-1,1-dicarboxamide] | 10 to 100 nM | ≤ 10 nM
CC(C)n1cc(-c2ccc3c(Oc4ccc(NC(=O)C5(C(=O)Nc6ccc(F)cc6)CC5)cc4)ccnc3c2)cn1 [Compound 21, 1-N′-(4-Fluorophenyl)-1-N-[4-[7-(1-propan-2-ylpyrazol-4-yl)quinolin-4-yl]oxyphenyl]cyclopropane-1,1-dicarboxamide] | 10 to 100 nM | ≤ 10 nM
O=C(Nc1ccc(F)cc1)C1(C(=O)Nc2ccc(Oc3ccnc4cc(-c5cnn(C6CC6)c5)ccc34)cc2)CC1 [Compound 22, 1-N-[4-[7-(1-Cyclopropylpyrazol-4-yl)quinolin-4-yl]oxyphenyl]-1-N′-(4-fluorophenyl)cyclopropane-1,1-dicarboxamide] | 10 to 100 nM | 10 to 100 nM
CC(C)(C)n1cc(-c2ccc3c(Oc4ccc(NC(=O)C5(C(=O)Nc6ccc(F)cc6)CC5)cc4)ccnc3c2)cn1 [Compound 23, 1-N-[4-[7-(1-tert-Butylpyrazol-4-yl)quinolin-4-yl]oxyphenyl]-1-N′-(4-fluorophenyl)cyclopropane-1,1-dicarboxamide] | 10 to 100 nM | 10 to 100 nM
O=C(Nc1ccc(F)cc1)C1(C(=O)Nc2ccc(Oc3ccnc4cc(-c5cnn(C6COC6)c5)ccc34)cc2)CC1 [Compound 24, 1-N′-(4-Fluorophenyl)-1-N-[4-[7-[1-(oxetan-3-yl)pyrazol-4-yl]quinolin-4-yl]oxyphenyl]cyclopropane-1,1-dicarboxamide] | ≤ 10 nM | ≤ 10 nM
O=C(Nc1ccc(F)cc1)C1(C(=O)Nc2ccc(Oc3ccnc4cc(-c5cccnc5)ccc34)cc2)CC1 [Compound 25, 1-N′-(4-Fluorophenyl)-1-N-[4-(7-pyridin-3-ylquinolin-4-yl)oxyphenyl]cyclopropane-1,1-dicarboxamide] | 10 to 100 nM | 10 to 100 nM
O=C(Nc1ccc(F)cc1)C1(C(=O)Nc2ccc(Oc3ccnc4cc(-c5ccncc5)ccc34)cc2)CC1 [Compound 26, 1-N′-(4-Fluorophenyl)-1-N-[4-(7-pyridin-4-ylquinolin-4-yl)oxyphenyl]cyclopropane-1,1-dicarboxamide] | ≤ 10 nM | ≤ 10 nM

Second part, the molecule after the results:

IC50 (Met) | IC50 (AXL) | Structure (SMILES)
10 to 100 nM | ≤ 10 nM | O=C(Nc1ccc(F)cc1)C1(C(=O)Nc2ccc(Oc3ccnc4cc(-c5cnn(C(F)F)c5)ccc34)cc2)CC1 [Compound 13, 1-N-[4-[7-[1-(Difluoromethyl)pyrazol-4-yl]quinolin-4-yl]oxyphenyl]-1-N′-(4-fluorophenyl)cyclopropane-1,1-dicarboxamide]
≤ 10 nM | ≤ 10 nM | O=C(Nc1ccc(F)cc1)C1(C(=O)Nc2ccc(Oc3ccnc4cc(-c5cnn(CCF)c5)ccc34)cc2)CC1 [Compound 14, 1-N-[4-[7-[1-(2-Fluoroethyl)pyrazol-4-yl]quinolin-4-yl]oxyphenyl]-1-N′-(4-fluorophenyl)cyclopropane-1,1-dicarboxamide]
10 to 100 nM | ≤ 10 nM | O=C(Nc1ccc(F)cc1)C1(C(=O)Nc2ccc(Oc3ccnc4cc(-c5cnn(CC(F)F)c5)ccc34)cc2)CC1 [Compound 15, 1-N-[4-[7-[1-(2,2-Difluoroethyl)pyrazol-4-yl]quinolin-4-yl]oxyphenyl]-1-N′-(4-fluorophenyl)cyclopropane-1,1-dicarboxamide]
10 to 100 nM | 10 to 100 nM | O=C(Nc1ccc(F)cc1)C1(C(=O)Nc2ccc(Oc3ccnc4cc(-c5cnn(CC(F)(F)F)c5)ccc34)cc2)CC1 [Compound 16, 1-N′-(4-Fluorophenyl)-1-N-[4-[7-[1-(2,2,2-trifluoroethyl)pyrazol-4-yl]quinolin-4-yl]oxyphenyl]cyclopropane-1,1-dicarboxamide]
≤ 10 nM | ≤ 10 nM | O=C(Nc1ccc(F)cc1)C1(C(=O)Nc2ccc(Oc3ccnc4cc(-c5cnn(CCO)c5)ccc34)cc2)CC1 [Compound 18, 1-N′-(4-Fluorophenyl)-1-N-[4-[7-[1-(2-hydroxyethyl)pyrazol-4-yl]quinolin-4-yl]oxyphenyl]cyclopropane-1,1-dicarboxamide]
10 to 100 nM | ≤ 10 nM | CCn1cc(-c2ccc3c(Oc4ccc(NC(=O)C5(C(=O)Nc6ccc(F)cc6)CC5)cc4)ccnc3c2)cn1 [Compound 20, 1-N-[4-[7-(1-Ethylpyrazol-4-yl)quinolin-4-yl]oxyphenyl]-1-N′-(4-fluorophenyl)cyclopropane-1,1-dicarboxamide]
